Results taken from ChEMBL document CHEMBL4007425, “Drug Repurposing of Histone Deacetylase Inhibitors That Alleviate Neutrophilic Inflammation in Acute Lung Injury and Idiopathic Pulmonary Fibrosis via Inhibiting Leukotriene A4 Hydrolase and Blocking LTB4 Biosynthesis” (J Med Chem, 2017).
Activity calls are given as the source filed them. The rule behind the calls is not given here.

How the values were obtained:
Mus musculus [1] = assay: Anti-inflammatory activity in BLM-induced C57BL/6 mouse model of acute lung neutrophilic inflammation assessed as MPO activity at 25 mg/kg, ip qd for 7 days post BLM challenge measured on day 7 (reference value: 0.98 U/g); type: functional
Mus musculus [2] = assay: Protection against BLM-induced lung fibrosis in C57BL/6 mouse assessed as reduction in deposition of collagen fibers at 10 and 25 mg/kg, ip qd for 7 days post BLM challenge measured on day 7 by Massons trichrome staining based method; type: functional, organism-based
Mus musculus [3] = assay: Anti-inflammatory activity in BLM-induced C57BL/6 mouse model of acute lung injury assessed as reduction in IL-1beta level in BALF at 10 and 25 mg/kg, ip qd for 7 days post BLM challenge measured on day 7 by ELISA; type: functional, organism-based
Mus musculus [4] = assay: Protection against BLM-induced lung fibrosis in C57BL/6 mouse assessed as reduction in hydroxyproline level at 25 mg/kg, ip qd for 7 days post BLM challenge measured on day 14; type: functional; details: C57BL/6, ip
Mus musculus [5] = assay: Protection against BLM-induced lung fibrosis in C57BL/6 mouse assessed as TGF-beta1 level at 25 mg/kg, ip qd for 7 days post BLM challenge measured on day 7 by ELISA (reference value: 75.39 pg/ml); type: functional
Mus musculus [6] = assay: Protection against BLM-induced lung fibrosis in C57BL/6 mouse assessed as TGF-beta1 level at 10 and 25 mg/kg, ip qd for 7 days post BLM challenge measured on day 7 by qRT-PCR method; type: functional, organism-based
Mus musculus [7] = assay: Anti-inflammatory activity in BLM-induced C57BL/6 mouse model of acute lung neutrophilic inflammation assessed as LTB4 level at 25 mg/kg, ip qd for 7 days post BLM challenge measured on day 7 (reference value: 139.23 pg/ml); type: functional
Mus musculus [8] = assay: Anti-inflammatory activity in BLM-induced C57BL/6 mouse model of acute lung neutrophilic inflammation assessed as reduction in total cell number in BALF at 10 and 25 mg/kg, ip qd for 7 days post BLM challenge measured on day 7; type: functional, organism-based
Mus musculus [9] = assay: Anti-inflammatory activity in BLM-induced C57BL/6 mouse model of acute lung neutrophilic inflammation assessed as reduction in number of neutrophils in BALF at 25 and 50 mg/kg, ip qd for 7 days post BLM challenge measured on day 7; type: functional, organism-based
Mus musculus [10] = assay: Anti-inflammatory activity in LPS-induced C57BL/6 mouse model of acute lung injury assessed as intact alveolar structure at 10 to 50 mg/kg, ip pretreated for 1 hr followed LPS challenge measured after 24 hrs by hematoxylin and eosin staining based microscopy; type: functional, organism-based
Mus musculus [11] = assay: Anti-inflammatory activity in BLM-induced C57BL/6 mouse model of acute lung neutrophilic inflammation assessed as protein concentration in BALF at 50 mg/kg, ip qd for 7 days post BLM challenge measured on day 7 (reference value: 2.39 mg/ml); type: functional
Mus musculus [12] = assay: Anti-inflammatory activity in LPS-induced C57BL/6 mouse model of acute lung injury assessed as reduction in IL-1beta level pretreated intraperitoneally for 1 hr followed LPS challenge after 24 hrs by ELISA; type: functional
Mus musculus [13] = assay: Anti-inflammatory activity in LPS-induced C57BL/6 mouse model of acute lung injury assessed as reduction in protein concentration in BALF at 10 to 50 mg/kg, ip pretreated for 1 hr followed LPS challenge measured after 24 hrs; type: functional, organism-based
Plasma [14] = assay: Plasma concentration in mouse by liquid chromatography mass spectrometry; type: ADME, cell-free
Mus musculus [15] = assay: Protection against BLM-induced lung fibrosis in C57BL/6 mouse assessed as reduction in deposition of collagen fibers at 25 and 50 mg/kg, ip qd for 7 days post BLM challenge measured on day 7 by Massons trichrome staining based method; type: functional, organism-based
Mus musculus [16] = assay: Anti-inflammatory activity in LPS-induced C57BL/6 mouse model of acute lung injury assessed as reduction in TNFalpha level pretreated intraperitoneally for 1 hr followed LPS challenge after 24 hrs by ELISA; type: functional
Mus musculus [17] = assay: Anti-inflammatory activity in LPS-induced C57BL/6 mouse model of acute lung injury assessed as reduction in pathological changes at 10 to 50 mg/kg, ip pretreated for 1 hr followed LPS challenge measured after 24 hrs by hematoxylin and eosin staining based microscopy; type: functional, organism-based
Mus musculus [18] = assay: Anti-inflammatory activity in LPS-induced C57BL/6 mouse model of acute lung injury assessed as reduction in neutrophil infiltration by measuring MPO activity at 10 to 50 mg/kg, ip pretreated for 1 hr followed LPS challenge measured after 24 hrs; type: functional, organism-based
Mus musculus [19] = assay: Anti-inflammatory activity in LPS-induced C57BL/6 mouse model of acute lung injury assessed as reduction in TNFalpha mRNA level pretreated intraperitoneally for 1 hr followed LPS challenge after 24 hrs by qRT-PCR method; type: functional
Mus musculus [20] = assay: Anti-inflammatory activity in LPS-induced C57BL/6 mouse model of acute lung injury assessed as reduction in total number of leucocytes in BALF at 10 to 50 mg/kg, ip pretreated for 1 hr followed LPS challenge measured after 24 hrs; type: functional, organism-based
Mus musculus [21] = assay: Anti-inflammatory activity in LPS-induced C57BL/6 mouse model of acute lung injury assessed as reduction in IL-6 level pretreated intraperitoneally for 1 hr followed LPS challenge after 24 hrs by ELISA; type: functional
Mus musculus [22] = assay: Protection against BLM-induced lung fibrosis in C57BL/6 mouse assessed as TGF-beta1 level at 50 mg/kg, ip qd for 7 days post BLM challenge measured on day 14 by ELISA (reference value: 99.30 pg/ml); type: functional
Mus musculus [23] = assay: Anti-inflammatory activity in BLM-induced C57BL/6 mouse model of acute lung injury assessed as reduction in IL-6 level in BALF at 25 and 50 mg/kg, ip qd for 7 days post BLM challenge measured on day 7 by ELISA; type: functional, organism-based
Mus musculus [24] = assay: Anti-inflammatory activity in LPS-induced C57BL/6 mouse model of acute lung injury assessed as reduction in lung lesions at 10 to 50 mg/kg, ip pretreated for 1 hr followed LPS challenge measured after 24 hrs by hematoxylin and eosin staining based microscopy; type: functional, organism-based
Mus musculus [25] = assay: Anti-inflammatory activity in BLM-induced C57BL/6 mouse model of acute lung neutrophilic inflammation assessed as MPO activity at 50 mg/kg, ip qd for 7 days post BLM challenge measured on day 7 (reference value: 0.98 U/g); type: functional
Mus musculus [26] = assay: Anti-inflammatory activity in BLM-induced C57BL/6 mouse model of acute lung neutrophilic inflammation assessed as reduction in number of lymphocytes in BALF at 25 and 50 mg/kg, ip qd for 7 days post BLM challenge measured on day 7; type: functional, organism-based
Mus musculus [27] = assay: Protection against BLM-induced lung fibrosis in C57BL/6 mouse assessed as TGF-beta1 level at 25 and 50 mg/kg, ip qd for 7 days post BLM challenge measured on day 7 by qRT-PCR method; type: functional, organism-based
Mus musculus [28] = assay: Anti-inflammatory activity in BLM-induced C57BL/6 mouse model of acute lung neutrophilic inflammation assessed as reduction in total cell number in BALF at 25 and 50 mg/kg, ip qd for 7 days post BLM challenge measured on day 7; type: functional, organism-based
Plasma [29] = assay: Plasma concentration in human; type: ADME, cell-free

CN(C)c1ccc(C(=O)NCCCCCCC(=O)NO)cc1
Activity (Mus musculus [1]): 0.56 U/g | Activity (Mus musculus [2]): Active | Activity (Mus musculus [3]): Active | inhibition in vivo at 25 mg/kg (Mus musculus [4]): 34% | Activity (Mus musculus [5]): 31.74 pg/mL | Activity (Mus musculus [6]): Active | Activity (Mus musculus [7]): 37.23 pg/mL | Activity (Mus musculus [8]): Active

O=C(CCCCCCC(=O)Nc1ccccc1)NO [VORINOSTAT]
Activity (Mus musculus [9]): Active | Activity (Mus musculus [10]): Active | Activity (Mus musculus [11]): 1.79 mg/mL | Activity (Mus musculus [12]): Dose-dependent effect | Activity (Mus musculus [13]): Active | concentration (Plasma [14]): 1 to 10 µM | Activity (Mus musculus [15]): Active | Activity (Mus musculus [16]): Dose-dependent effect | Activity (Mus musculus [17]): Active | Activity (Mus musculus [18]): Active | Activity (Mus musculus [19]): Dose-dependent effect | Activity (Mus musculus [20]): Active | Activity (Mus musculus [21]): Dose-dependent effect | Activity (Mus musculus [22]): 49.74 pg/mL | Activity (Mus musculus [23]): Active | Activity (Mus musculus [24]): Active | Activity (Mus musculus [25]): 0.67 U/g | Activity (Mus musculus [26]): Active | Activity (Mus musculus [27]): Active | Activity (Mus musculus [28]): Active | concentration (Plasma [29]): 0.01 to 6 µM
